Experimental findings from patent publication US20230322805A1, “NOVEL PYRIMIDODIAZEPINE DERIVATIVES OR USES THEREOF” (SPARK BIOPHARMA, INC., priority 2020, published 2023) are described below.

The target in series [1] is T1, PDIA3 (PDI reductase activity) (Homo sapiens, UniProt P30101).
T1 construct: endogenous in cells; host or cells: HEK293 BiFC-tau cells (TS-FITGE, CETSA, PEG-maleimide assay)
T1 sequence (P30101 25-505): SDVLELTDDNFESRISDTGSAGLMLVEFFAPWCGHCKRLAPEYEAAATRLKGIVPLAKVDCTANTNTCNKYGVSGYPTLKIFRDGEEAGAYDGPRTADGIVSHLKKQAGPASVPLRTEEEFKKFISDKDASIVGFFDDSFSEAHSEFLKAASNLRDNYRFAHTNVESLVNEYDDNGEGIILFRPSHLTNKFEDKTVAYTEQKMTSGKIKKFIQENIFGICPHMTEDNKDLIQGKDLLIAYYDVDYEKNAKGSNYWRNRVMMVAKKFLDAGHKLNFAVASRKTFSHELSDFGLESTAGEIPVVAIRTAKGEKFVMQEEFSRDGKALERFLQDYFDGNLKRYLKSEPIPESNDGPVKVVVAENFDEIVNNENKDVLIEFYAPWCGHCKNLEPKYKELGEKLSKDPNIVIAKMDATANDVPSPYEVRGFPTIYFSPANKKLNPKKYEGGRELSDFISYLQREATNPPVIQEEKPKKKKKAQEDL
Description: PEG maleimide modification assay of PDI oxidation state. Format: cell-based. Conditions: BiFC-tau HEK293 cells, 200 nM TG and 40 μM SB1617 for 3.5 hours, versus thapsigargin alone. As for the experimental part: Cysteine modification analysis using PEG maleimide was performed according to the paper (P. Kranz, F. Neumann, A. Wolf, F. Classen, M. Pompsch, T. Ocklenburg, J. Baumann, K. Janke, M. Baumann, K. Goepelt, H. Riffkin, E. Metzen, U. Brockmeier, PDI is an essential redox-sensitive activator of PERK during the unfolded protein response (UPR). Cell Death Dis. 8, e2986 (2017)).
After compound treatment, BiFC-tau HEK293 cells were washed with cold PBS, incubated with 20 mM N-ethylmaleimide (NEM, Sigma Aldrich) in PBS for 20 minutes on ice to alkylate the reduced form of cysteine, and after washing with cold PBS, the cells were lysed in RIPA buffer. For whole cell analysis, the lysate was centrifuged at 200 g for 5 min at 4° C. to remove insoluble material. Protein concentration in the supernatant was analyzed by Pierce BCA Protein Assay Kit. Equal amounts of each lysate were treated with 12 mM tris(2-carboxyethyl)phosphine (TCEP, Sigma Aldrich) for 20 minutes at room temperature to reduce the form of oxidized PDI. Lysates were incubated with 15 mM methoxy polyethylene glycol 5000 maleimide (mPEG-mal5000, Sigma Aldrich) for 1 hour at room temperature. […]
3-2. […] Maleimides with two different molecular weights allow the bands of oxidized and reduced forms of PDI to be readily separated by electrophoresis.

For series [2], the system named is LC3-1 to LC3-II conversion (autophagy). The series can be described thus: Immunoblot of LC3-1 to LC3-II conversion and p62 in HEK293 BiFC-tau cells. It is filed as cell-based, human. Conditions: 5 μM SB1617, presence or absence of 500 nM TG, 6 hours.
Series [3] deals with acute Alzheimer's mouse model. Description: Acute Alzheimer's mouse model (acquisition and probe test). Format: in vivo. As to the method:
7-1. Potential therapeutic effect of SB1617 in an acute Alzheimer's mouse model was identified, and the design for the experiment is schematically shown in FIG. 40
7-3. As a result of confirming the treatment efficacy through a probe test, after removing the platform, it was performed by recording how many times the mouse passed the position where the platform was […]

For series [4], the system named is PERK signaling (p-PERK, p-elF2a, ATF4). Description: Time course of PERK activation in SH-SY5Y cells (immunoblot). Format: cell-based, human. As to the method: 4-2. PDIA3 and DNAJC3 play a role in regulating tau aggregation by inhibiting the PERK signaling pathway. Accordingly, human neuroblastoma SH-SY5Y cells were treated with 10 μM SB1617, treated with or without thapsigargin, and PERK activation was confirmed over time.
The stress-response potency of SB1617 may be due to upregulation of PDIA3 and DNAJC3 levels or changes in the redox state of partner proteins under ER stress conditions.

Series [5] relates to DsRed-IRES-tau EGFP HEK293 cells. Description: Flow cytometry of DsRed-IRES-tau EGFP HEK293 cells (tau clearance). Format: cell-based, human. Particulars: 5 μM compound with 100 nM TG for 20 hours. In general terms: A flow cytometer gives signals particle by particle.
Series [6] in a line: Blood-brain barrier penetration test in male ICR mice. Format: in vivo, mouse. Particulars: for concentration at 0.5 h / concentration at 3 h: male, 5 mg/kg. As for the experimental part:
After intraperitoneal administration (5 mg/kg, 3.3 mL/kg) of the compound (SB1617, 5% DMSO/[…]) according to the present invention to CD-1 (ICR) male mice (7 weeks old, KOATECH, Korea), blood samples were collected using heparinized tubes at designated time points (0.5 and 3 hours) in the orbital venous plexus, mice were sacrificed, and brain tissues were harvested. Plasma and brain homogenate samples were analyzed with an LC-MS/MS analyzer (Agilent 1260, Agilent 6460). The proportion of the compound according to the invention (SB1617) in brain and plasma was calculated.
6-1. In order to evaluate the suitability of the compound (SB1617) according to this invention in vivo, pharmacokinetic properties and blood-brain barrier penetration properties were identified using male ICR mice according to the methods described in Examples 1-15 and 1-16.
In addition, as shown in FIG. 28 and Table 3, it was confirmed that at least 50% of SB1617 was detected in the brain compared to plasma.

SMILES strings stand for the structures. Like-named read-outs stand apart in the source and are kept apart here.

Take `CN(Cc1ccc(Cl)cc1)c1ncnc2c1[C@@H]1OC[C@H](CN2)N1S(=O)(=O)c1ccc([N+](=O)[O-])cc1` [Compound 117]: the “oxidation state of PDI” value in series [1] is listed as “significantly converted from the reduced form to the oxidized form”. In addition, in series [2], the “conversion from LC3-1 to LC3-II” value is given as “conversion from light chain 3-1 (LC3-1) to LC3-II was confirmed”. Besides, in series [3] (acute Alzheimer's mouse model), the “learning ability (Acquisition test), rank order” value is “WT >Donepezil >SB-1617>Vehicle”. Moreover, in series [3] (compared to the vehicle), the “probe test, number of times of entering the SW quadrant space” value is reported as “significantly higher value”. Besides, the “probe test, number of times passing the virtual platform” value in series [3] (compared to the vehicle) is “significantly higher value”. Further, the “probe test, time to reach the platform” value in series [3] (compared to the vehicle) was “significantly lower value”. Moreover, the “probe test, percentage (%) of the time spent in the quadrant where the platform exists” value in series [3] (mouse, in vivo) was “remembered the location of the platform well”. In addition, the “PERK activation over time” value in series [4] (10 μM SB1617, with thapsigargin) is on record as “prolonged PERK activation”. In addition, in series [4] (10 μM SB1617, without thapsigargin (absence of cell stress)), the “activation of downstream PERK signaling” value is listed as “not significant”. Moreover, the EGFP-to-DsRed signal ratio result in series [5] was “decreased”. For the same compound, the Kp at 0.5 h in series [6] (CD-1 (ICR), mouse, brain, ip, 0.5 h after I.P. 5 mg/kg, read-out: Brain/Plasma ratio) is 0.5 ± 0.14. Besides, the Kp at 3 h in series [6] (CD-1 (ICR), mouse, brain, ip, 3 h after I.P. 5 mg/kg, read-out: Brain/Plasma ratio) was determined as 0.66 ± 0.21. In addition, in series [6] (CD-1 (ICR), mouse, in vivo, ip, I.P. 5 mg/kg, read-out: SB1617 detected in the brain compared to plasma), the Kp was no less than 0.5. The blood-brain barrier crossing result in series [6] (intraperitoneal injection) is reported as “sufficient blood-brain barrier crossing”. Also, the concentration at 0.5 h in series [6] (CD-1 (ICR), mouse, in vivo, ip, 0.5 h after I.P. 5 mg/kg, read-out: Concentration, Brain tissue) worked out at 0.421 ± 0.0582 µg/mL; in series [6] (CD-1 (ICR), mouse, in vivo, ip, 0.5 h after I.P. 5 mg/kg, read-out: Concentration, Plasma) it was 0.885 ± 0.187 µg/mL. Moreover, the concentration at 3 h in series [6] (CD-1 (ICR), mouse, in vivo, ip, 3 h after I.P. 5 mg/kg, read-out: Concentration, Brain tissue) is 0.0559 ± 0.005 µg/mL; in series [6] (CD-1 (ICR), mouse, in vivo, ip, 3 h after I.P. 5 mg/kg, read-out: Concentration, Plasma) it was 0.0924 ± 0.0298 µg/mL.
